Legend:
[1] = biological target: T1, human somatostatin receptor subtype 2 (Homo sapiens, UniProt P30874); assay: cAMP assay for SST2R; assay type: cell-based; conditions: inhibition of cAMP, CHO-K1 cells expressing human SST2; read-out: SST2 potency (EC50; nM)
T1 construct: expressed in transfected cells
From the text: General overview: All five SSTR subtypes are Gi coupled G-protein coupled receptors (GPCRs) that lead to decreases in intracellular cyclic AMP (cAMP) when activated by an agonist. Therefore, measurement of intracellular cAMP levels can be used to assess whether compounds of the invention are agonists of SSTR subtypes (John Kelly, Troy Stevens, W. Joseph Thompson, and Roland Seifert, Current Protocols in Pharmacology, 2005, 2.2.1-2.2). One example of an intracellular cAMP assay is described below.
Four days prior to the assay, 5,000 Chinese hamster ovary cells (CHO-K1, ATCC #CCL-61) stably expressing the human somatostatin receptor subtype 2 are plated in each well of a 96-well tissue culture-treated plate in Ham's F12 growth media (ThermoFisher #10-080-CM) supplemented with 10% donor bovine serum (Gemini Bio-Products #100-506), 100 U/mL penicillin; 100 ug/mL streptomycin; 2 mM L-glutamine (Gemini Bio-Products #400-110) and 0.2 mg/mL hygromycin B (GoldBio #31282-04-9). The cells are cultured at 37° C., 5% CO2 and 95% humidity. […] The time-resolved fluorescent signal is read with a Tecan M1000Pro multiplate reader. The intracellular cAMP concentrations are calculated by regression to a standard curve and are plotted vs. the concentration of the compounds of the invention and the EC50 of the compounds are calculated using standard methods. […]

[2] = test system: glyburide-induced hyperinsulinemic hypoglycemia; assay: Glyburide-induced hyperinsulinemic hypoglycemia model in rats; assay type: in vivo, Sprague Dawley rats; conditions: for Blood glucose levels reached over 5 hours: male rats, 2 h after glyburide, vehicle 94 mg/dL
Procedure: Sulfonylurea drugs, such as glyburide, inhibit KATP channels and can be used in rat preclinical models to mimic the disease state of congenital HI patients with KATP channel mutations.
This model of glyburide-induced hyperinsulinemic hypoglycemia was used to assess the pharmacodynamic effects of Compound 1 after a single administration in male and female adult rats and male neonatal rats.
Glyburide was administered to raise insulin levels and induce hypoglycemia in adult male Sprague Dawley rats.
Two hours following glyburide administration, Compound 1 was given by oral gavage and blood glucose was monitored over 5 hours.

major human CYP enzymes = assay: CYP inhibition or induction; assay type: in vitro ADME; conditions: including CYP2C9 and CYP3A4
[3] = test system: sulfonylurea-induced hyperinsulinism; assay: Sulfonylurea (glibenclamide) challenge and euglycemic clamp, SAD; assay type: in vivo, human; conditions: single dose 30 mg or 60 mg
Procedure: SAD 1b/Part 1b: ascending single dose, randomized, placebo-controlled, double-blind; up to 3 cohorts, n=8/cohort; subjects in SAD 1b will undergo an SU challenge and euglycemic clamp procedure. Doses are 30 mg or 60 mg.
In SAD 1b and the MAD, subjects will undergo an SU challenge in the setting of a euglycemic clamp procedure. Sulfonylurea drugs act to close KATP channel of the pancreatic β-cell, stimulating endogenous insulin secretion. Given that the majority (50%) of patients with congenital HI harbor a mutation in the KATP channel, the SU challenge models this genetic form of HI in healthy volunteers. Intravenous glucose will be used during the euglycemic clamp to maintain glucose within a target range. […] The SU challenge cohorts in SAD 1b will assess the ability of a single dose of Compound 1 to reduce or prevent SU-induced glucose lowering as measured by reduced IV glucose infusion (reduced glucose “support”). IV glucose requirements will be assessed as a glucose infusion rate, or GIR (mg dextrose/kg body weight/minute). In the MAD, the durability of the Compound 1 effect will be measured by assessing the GIR required to maintain euglycemia during the SU challenge after 10 days of Compound 1 dosing compared to the baseline SU challenge in the absence (predose) of Compound 1. […]

[4] = MAD study pharmacokinetics; assay type: in vivo, human
Procedure: MAD/Part 2: multiple ascending dose, randomized, placebo-controlled, double-blind; up to 5 cohorts, n=9/cohort; subjects in MAD will receive Compound 1 or the placebo. Subjects will undergo a mixed meal tolerance test (MMTT) and an SU challenge and euglycemic clamp procedure. The doses will not exceed the doses in the SAD. Doses will escalate from 30 mg to 120 mg.

T1 sequence (P30874 whole entry): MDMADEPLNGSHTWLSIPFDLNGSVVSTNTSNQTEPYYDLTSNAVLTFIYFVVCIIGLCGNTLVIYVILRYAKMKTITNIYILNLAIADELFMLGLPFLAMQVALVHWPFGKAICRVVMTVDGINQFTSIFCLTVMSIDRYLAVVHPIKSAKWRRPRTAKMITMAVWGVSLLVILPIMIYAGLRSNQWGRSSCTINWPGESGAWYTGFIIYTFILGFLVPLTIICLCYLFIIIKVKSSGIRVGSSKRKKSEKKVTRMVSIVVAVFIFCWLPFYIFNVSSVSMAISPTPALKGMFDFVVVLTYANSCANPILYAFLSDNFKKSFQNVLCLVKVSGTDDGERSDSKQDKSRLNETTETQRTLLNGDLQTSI

C[C@H](NC(=O)c1cnc(C#N)c(-c2cc(F)cc(F)c2)c1N1CC[C@H](N)C1)C(F)(F)F [Compound 1, 4-[(3S)-3-aminopyrrolidin-1-yl]-6-cyano-5-(3,5-difluorophenyl)-N-[(2S)-1,1,1-trifluoropropan-2-yl]pyridine-3-carboxamide]
EC50 [1]: > 100 nM | Blood glucose levels reached over 5 hours ([2]; 3 mg/kg oral): up to 111 mg/dL | Blood glucose levels reached over 5 hours ([2]; 10 mg/kg oral): ≤ 134 mg/dL | Blood glucose levels reached over 5 hours ([2]; 30 mg/kg oral): ≤ 203 mg/dL | Blood glucose levels compared to vehicle ([2]; oral, 3-30 mg/kg): dose-dependently increased blood glucose levels | Minimum effective dose (significant increase in blood glucose AUC over 5 hours) ([2]; oral, single dose): 10 mg/kg | Potential for inhibition or induction of the major human CYP enzymes (major human CYP enzymes): little or no potential for inhibition or induction | Effect on sulfonylurea-induced hyperinsulinism [3]: reversed sulfonylurea-induced hyperinsulinism | Need for IV glucose support (glucose infusion rate) [3]: eliminating the need for IV glucose support | Time to steady state trough levels ([4]; QD dosing): ~8 days | Mean accumulation at steady state for AUC ([4]; QD dosing 30-120 mg): 2-2.5 × | Mean accumulation at steady state for Cmaz ([4]; QD dosing 30-120 mg): 1.6-1.8 × | Dose proportionality of exposures ([4]; between 30 and 120 mg doses): Modestly greater than proportional increases in exposures

Source: patent US20220323427A1, “SOMATOSTATIN RECEPTOR TYPE 5 AGONIST FOR THE TREATMENT OF HYPERINSULINISM” (Crinetics Pharmaceuticals, Inc., priority 2021, published 2022)
